For the experiment, the target named is T1, c-Kit(V654A) (Homo sapiens, UniProt P10721, V654A).
T1 construct: amino acids 544-end containing the V654A mutation; GST (N)
As to the kind of experiment: c-Kit(V654A) assay. Format: biochemical. The settings on record: recombinant human c-Kit aa 544-end, 200 μM ATP, 1.4E-06 means 1.4×10^−6, read-out: Inhibition (IC50) of c-KIT (V654A). The method, then: c-Kit(V654A) (N-terminal GST-tagged, recombinant human c-Kit, amino acids 544-end containing the V654A mutation) is incubated with 8 mM MOPS pH 7.0, 0.2 mM EDTA, 250 μM GGMEDIYEFMGGKKK, 10 mM MgAcetate and [gamma-33P-ATP] (specific activity approx. 500 cpm/pmol, concentration 200 μM). The reaction is initiated by the addition of the MgATP mix. After incubation for 40 minutes at room temperature, the reaction is stopped by the addition of 3% phosphoric acid solution. 10 μL of the reaction is then spotted onto a P30 filtermat and washed three times for 5 minutes in 75 mM phosphoric acid and once in methanol prior to drying and scintillation counting.

In patent publication US11939314B2, “Quinolin-2-one derivatives” (MERCK PATENT GMBH, priority 2016, dated 2024) one finds IC50 data, which are given here for 31 molecules.

The structures appear in SMILES notation.

T1 sequence (P10721 544-976 V654A): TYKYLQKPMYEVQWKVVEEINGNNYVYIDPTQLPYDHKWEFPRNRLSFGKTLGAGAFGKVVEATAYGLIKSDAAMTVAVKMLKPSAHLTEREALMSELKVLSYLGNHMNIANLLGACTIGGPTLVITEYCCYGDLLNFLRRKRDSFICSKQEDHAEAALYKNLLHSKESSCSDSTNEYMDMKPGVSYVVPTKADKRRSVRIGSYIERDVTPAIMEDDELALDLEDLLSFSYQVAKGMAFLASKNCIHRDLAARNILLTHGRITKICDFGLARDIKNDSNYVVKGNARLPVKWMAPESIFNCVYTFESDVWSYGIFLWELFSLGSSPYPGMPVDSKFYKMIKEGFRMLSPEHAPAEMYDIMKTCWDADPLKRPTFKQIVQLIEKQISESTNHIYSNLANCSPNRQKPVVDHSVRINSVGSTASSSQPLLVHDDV

One may read the IC50 as the concentration at which inhibition is half-maximal. In the case of `O=c1[nH]c2ncccc2cc1-c1cn(-c2ccccc2)nn1` [A6, 3-(1-phenyl-1H-[1,2,3]triazol-4-yl)-1H-[1,8]naphthyridin-2-one], the IC50 was 430 nM.

On to `O=c1[nH]c2ncccc2cc1-c1cn(-c2ccc(CO)cc2)nn1` [A7, 3-[1-(4-hydroxymethyl-phenyl)-1H-[1,2,3]triazol-4-yl]-1H-[1,8]naphthyridin-2-one], for which the IC50 was determined as 490 nM.

Regarding `Cc1c(-c2cn(-c3ccc(C(=O)N4CCOCC4)cc3)nn2)c(=O)[nH]c2ccccc12` [A185, 4-methyl-3-{1-[4-(morpholine-4-carbonyl)-phenyl]-1H-[1,2,3]triazol-4-yl}-1H-quinolin-2-one], the IC50 came out at 510 nM.

On to `CS(=O)(=O)[C@@H]1CCN(C(=O)c2ccc(-n3cc(-c4cc5cc(F)ccc5[nH]c4=O)nn3)cc2)C1` [A282, 6-fluoro-3-{1-[4-((R)-3-methanesulfonyl-pyrrolidine-1-carbonyl)-phenyl]-1H-[1,2,3]triazol-4-yl}-1H-quinolin-2-one], for which the half-inhibitory concentration (IC50) stood at 16 nM.

Consider `CS(=O)(=O)[C@H]1CCN(C(=O)c2ccc(-n3cc(-c4cc5cc(F)ccc5[nH]c4=O)nn3)cc2)C1` [A283, 6-fluoro-3-{1-[4-((S)-3-methanesulfonyl-pyrrolidine-1-carbonyl)-phenyl]-1H-[1,2,3]triazol-4-yl}-1H-quinolin-2-one], for which the IC50 worked out at 19 nM.

As to `CS(=O)(=O)CC1CCN(C(=O)c2ccc(-n3cc(-c4cc5cc(F)ccc5[nH]c4=O)nn3)cc2)C1` (stereo not shown) [A284, 6-fluoro-3-{1-[4-(3-methanesulfonylmethyl-pyrrolidine-1-carbonyl)-phenyl]-1H-[1,2,3]triazol-4-yl}-1H-quinolin-2-one], the IC50 is 17 nM.

Turning to `Cn1cc(C2CCCN2C(=O)c2ccc(-n3cc(-c4cc5cc(F)ccc5[nH]c4=O)nn3)cc2)cn1` (stereo not shown) [A285, 6-fluoro-3-(1-{4-[2-(1-methyl-1H-pyrazol-4-yl)-pyrrolidine-1-carbonyl]-phenyl}-1H-[1,2,3]triazol-4-yl)-1H-quinolin-2-one], the IC50 amounted to 5.6 nM.

On to `O=C(c1ccc(-n2cc(-c3cc4cc(F)ccc4[nH]c3=O)nn2)cc1)N1CCCC1c1cccnc1` (stereo not shown) [A286, 6-fluoro-3-{1-[4-(2-pyridin-3-yl-pyrrolidine-1-carbonyl)-phenyl]-1H-[1,2,3]triazol-4-yl}-1H-quinolin-2-one], for which the 50% inhibitory concentration (IC50) came to 5.1 nM.

On to `CN1CCN(CC2CCCN2C(=O)c2ccc(-n3cc(-c4cc5cc(F)ccc5[nH]c4=O)nn3)cc2)CC1` (stereo not shown) [A287, 6-fluoro-3-(1-{4-[2-(4-methyl-piperazin-1-ylmethyl)-pyrrolidine-1-carbonyl]-phenyl}-1H-[1,2,3]triazol-4-yl)-1H-quinolin-2-one], for which the IC50 is 25 nM.

Consider `CC1CCCN1C(=O)c1ccc(-n2cc(-c3cc4cc(F)ccc4[nH]c3=O)nn2)cc1` (stereo not shown) [A288, 6-fluoro-3-{1-[4-(2-methyl-pyrrolidine-1-carbonyl)-phenyl]-1H-[1,2,3]triazol-4-yl}-1H-quinolin-2-one], for which the IC50 came out at 6.5 nM.

In the case of `CN1CC2(CCN(C(=O)c3ccc(-n4cc(-c5cc6cc(F)ccc6[nH]c5=O)nn4)cc3)C2)C1` [A289, 6-fluoro-3-{1-[4-(2-methyl-2,6-diaza-spiro[3.4]octane-6-carbonyl)-phenyl]-1H-[1,2,3]triazol-4-yl}-1H-quinolin-2-one], the concentration for half-maximal inhibition (IC50) was 25 nM.

As to `CN1CC2(CCN(C(=O)c3ccc(-n4cc(-c5cc6cc(Cl)ccc6[nH]c5=O)nn4)cc3)C2)C1` [A290, 6-chloro-3-{1-[4-(2-methyl-2,6-diaza-spiro[3.4]octane-6-carbonyl)-phenyl]-1H-[1,2,3]triazol-4-yl}-1H-quinolin-2-one], the IC50 stood at 14 nM.

With `CN1C[C@H]2CCN(C(=O)c3ccc(-n4cc(-c5cc6cc(F)ccc6[nH]c5=O)nn4)cc3)[C@H]2C1` [A291, 6-fluoro-3-{1-[4-((3aR,6aR)-5-methyl-hexahydro-pyrrolo[3,4-b]pyrrole-1-carbonyl)-phenyl]-1H-[1,2,3]triazol-4-yl}-1H-quinolin-2-one], the IC50 amounted to 7.5 nM.

Turning to `CN1CCN(C(=O)c2ccc(-n3cc(-c4cc5cc(F)c(F)cc5[nH]c4=O)cn3)cc2)CC1` [A304, 6,7-difluoro-3-{1-[4-(4-methyl-piperazine-1-carbonyl)-phenyl]-1H-pyrazol-4-yl}-1H-quinolin-2-one], the IC50 was found to be 16 nM.

With `CN1CCN(C(=O)c2ccc(-n3cc(-c4cc5cc(Cl)ccc5[nH]c4=O)cn3)cc2)CC1` [A305, 6-chloro-3-{1-[4-(4-methyl-piperazine-1-carbonyl)-phenyl]-1H-pyrazol-4-yl}-1H-quinolin-2-one], the IC50 is 7.7 nM.

As to `CN(C)C1CN(C(=O)c2ccc(-n3cc(-c4cc5cc(F)ccc5[nH]c4=O)nn3)cc2)CC1(F)F` (stereo not shown) [A339, 3-{1-[4-(4-dimethylamino-3,3-difluoro-pyrrolidine-1-carbonyl)-phenyl]-1H-[1,2,3]triazol-4-yl}-6-fluoro-1H-quinolin-2-one], the IC50 amounted to 9.2 nM.

Consider `CO[C@H](C)C(=O)N(C)c1ccc(-n2cc(-c3cc4cc(F)ccc4[nH]c3=O)nn2)cc1` [A346, (R)—N-{4-[4-(6-fluoro-2-oxo-1,2-dihydro-quinolin-3-yl)-[1,2,3]triazol-1-yl]-phenyl}-2-methoxy-N-methyl-propionamide], for which the IC50 was found to be 16 nM.

As for `CO[C@@H]1CN[C@H](C(=O)N(C)c2ccc(-n3cc(-c4cc5cc(F)ccc5[nH]c4=O)nn3)cc2)C1` [A347, (2S,4S)-4-methoxy-pyrrolidine-2-carboxylic acid {4-[4-(6-fluoro-2-oxo-1,2-dihydro-quinolin-3-yl)-[1,2,3]triazol-1-yl]-phenyl}-methyl-amide], the IC50 stood at 26 nM.

For the molecule `CO[C@@H](C)C(=O)N(C)c1ccc(-n2cc(-c3cc4cc(F)ccc4[nH]c3=O)nn2)cc1` [A348, (S)—N-{4-[4-(6-fluoro-2-oxo-1,2-dihydro-quinolin-3-yl)-[1,2,3]triazol-1-yl]-phenyl}-2-methoxy-N-methyl-propionamide], the IC50 was 16 nM.

On to `CN1CCC(C(=O)N(C)c2ccc(-n3cc(-c4cc5cc(F)ccc5[nH]c4=O)nn3)cc2)CC1` [A349, 1-methyl-piperidine-4-carboxylic acid {4-[4-(6-fluoro-2-oxo-1,2-dihydro-quinolin-3-yl)-[1,2,3]triazol-1-yl]-phenyl}-methyl-amide], for which the half-inhibitory concentration (IC50) was 51 nM.

Regarding `CO[C@H]1CCN(C(=O)c2cc(-n3cc(-c4cc5cc(F)ccc5[nH]c4=O)nn3)cs2)C1` [A350, 6-fluoro-3-{1-[5-((S)-3-methoxy-pyrrolidine-1-carbonyl)-thiophen-3-yl]-1H-[1,2,3]triazol-4-yl}-1H-quinolin-2-one], the IC50 is 16 nM.

Turning to `CO[C@@H]1CCN(C(=O)c2cc(-n3cc(-c4cc5cc(F)ccc5[nH]c4=O)nn3)cs2)C1` [A351, 6-fluoro-3-{1-[5-((R)-3-methoxy-pyrrolidine-1-carbonyl)-thiophen-3-yl]-1H-[1,2,3]triazol-4-yl}-1H-quinolin-2-one], the IC50 was found to be 14 nM.

Turning to `CO[C@@H]1CCN(S(=O)(=O)c2ccc(-n3cc(-c4cc5cc(F)ccc5[nH]c4=O)nn3)cc2)C1` [A358, 6-fluoro-3-{1-[4-((R)-3-methoxy-pyrrolidine-1-sulfonyl)-phenyl]-1H-[1,2,3]triazol-4-yl}-1H-quinolin-2-one], the IC50 was 19 nM.

Regarding `CO[C@@H]1CCN(S(=O)(=O)c2ccc(-n3cc(-c4cc5cc(Cl)ccc5[nH]c4=O)nn3)cc2)C1` [A359, 6-chloro-3-{1-[4-((R)-3-methoxy-pyrrolidine-1-sulfonyl)-phenyl]-1H-[1,2,3]triazol-4-yl}-1H-quinolin-2-one], the IC50 amounted to 13 nM.

In the case of `CO[C@H]1CCN(S(=O)(=O)c2ccc(-n3cc(-c4cc5cc(F)ccc5[nH]c4=O)nn3)cc2)C1` [A360, 6-fluoro-3-{1-[4-((S)-3-methoxy-pyrrolidine-1-sulfonyl)-phenyl]-1H-[1,2,3]triazol-4-yl}-1H-quinolin-2-one], the IC50 amounted to 22 nM.

With `CO[C@H]1CCN(S(=O)(=O)c2ccc(-n3cc(-c4cc5cc(Cl)ccc5[nH]c4=O)nn3)cc2)C1` [A361, 6-chloro-3-{1-[4-((S)-3-methoxy-pyrrolidine-1-sulfonyl)-phenyl]-1H-[1,2,3]triazol-4-yl}-1H-quinolin-2-one], the IC50 came out at 11 nM.

In the case of `CO[C@@H]1CCC[C@H]1Oc1ccc(-n2cc(-c3cc4cc(F)ccc4[nH]c3=O)nn2)cc1` [A362, 6-fluoro-3-{1-[4-((1S,25)-2-methoxy-cyclopentyloxy)-phenyl]-1H-[1,2,3]triazol-4-yl}-1H-quinolin-2-one], the IC50 was 16 nM.

On to `O=c1[nH]c2ccc(F)cc2cc1-c1cn(-c2ccc(OC3CCCC3)cc2)nn1` [A364, 3-[1-(4-cyclopentyloxy-phenyl)-1H-[1,2,3]triazol-4-yl]-6-fluoro-1H-quinolin-2-one], for which the IC50 is 21 nM.

As for `CN1CC[C@H](Oc2ccc(-n3cc(-c4cc5cc(F)c(F)cc5[nH]c4=O)nn3)cc2)C1` [A372, 6,7-difluoro-3-{1-[4-((S)-1-methyl-pyrrolidin-3-yloxy)-phenyl]-1H-[1,2,3]triazol-4-yl}-1H-quinolin-2-one], the 50% inhibitory concentration (IC50) was found to be 21 nM.

As to `CN1CC[C@@H](Oc2ccc(-n3cc(-c4cc5cc(F)c(F)cc5[nH]c4=O)nn3)cc2)C1` [A373, 6,7-difluoro-3-{1-[4-((R)-1-methyl-pyrrolidin-3-yloxy)-phenyl]-1H-[1,2,3]triazol-4-yl}-1H-quinolin-2-one], the IC50 is 15 nM.

For the molecule `CN1CCC(Cc2ccc(-n3cc(-c4cc5cc(Cl)ccc5[nH]c4=O)nn3)cc2)CC1` [A374, 6-chloro-3-{1-[4-(1-methyl-piperidin-4-ylmethyl)-phenyl]-1H-[1,2,3]triazol-4-yl}-1H-quinolin-2-one], the IC50 came out at 17 nM.
